The text below walks through data of ChEMBL document CHEMBL1201862, “PubChem BioAssay data set” (2004).

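Tested at 5 concentrations; 48 h exposure; 96-well plates; endpoints linearly interpolated, else capped at highest concentration. GI50 marks 50% less growth.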 Activity calls are given as the source filed them. Rule as the data show it: active = GI50 up to about 1.1 µM and inactive = higher.

What all share (experiment): NCI-60 cell line screen, 48 h
The subject of assay [1] is ACHN.
Assay [2] concerns CCRF-CEM.
For assay [3], the system named is HCC 2998.
Assay [4] has as its system HCT-116.
For assay [5], the system named is Hs-578T.
The subject of assay [6] is IGROV-1.
For assay [7], the system named is LOX IMVI.
Assay [8] deals with M14.
The subject of assay [9] is MDA-MB-231.
Assay [10] has as its system Malme-3M.
The test system of assay [11] is NCI-H23.
Assay [12] relates to NCI-H460.
Assay [13] relates to NCI/ADR-RES.
Assay [14] relates to PC-3.
Assay [15] concerns RPMI-8226.
For assay [16], the system named is SF-295.
Assay [17] relates to SK-MEL-2.
In assay [18] the test system is T47D.
Assay [19] has as its system UACC-257.
For assay [20], the system named is OVCAR-3.

For the compound `C=CCOC(=O)Cn1ccc(=O)[nH]c1=O`, the GI50 in assay [1], in assay [2], in [3], in assay [4], in [5] and in assay [6] was > 100 µM (inactive) in each case. The GI50 in assay [7], in [8], in assay [9], in assay [10], in [11] and in [12] was > 100 µM (inactive) in each case. The GI50 in [13], in assay [14], in assay [15], in [16], in assay [17] and in [18] was > 100 µM (inactive) throughout. Further, the GI50 in assay [19] is > 100 µM (inactive).

For the compound `O=C(O)C1CCN(Cc2oc(CO)cc(=O)c2O)C1` (stereo not given), the GI50 in [1], in [2], in assay [4], in assay [5], in assay [6] and in [7] was > 100 µM (inactive) throughout. In addition, the GI50 in assay [8], in [9], in assay [10], in assay [11], in assay [12] and in [13] was > 100 µM (inactive) in each case. Besides, the GI50 in [20], in [14], in assay [15], in assay [16], in [17] and in [18] was > 100 µM (inactive) in each case. Besides, the GI50 in assay [19] was > 100 µM (inactive).

With `CC(=O)N1c2ccccc2[C@H]2CCc3c([nH]c4ccccc34)[C@H]21`, the GI50 was 16 µM (inactive) in assay [1]; 11.6 µM (inactive) in assay [2]; 3.07 µM (inactive) in assay [4]; 21.9 µM (inactive) in assay [5]; 4.33 µM (inactive) in assay [6]; 11.6 µM (inactive) in assay [7]. Also, the GI50 in assay [8] was 14.3 µM (inactive); in assay [9], 11.4 µM (inactive); in assay [10], 14.1 µM (inactive); in assay [11], 9.53 µM (inactive); in assay [12], 8.39 µM (inactive); in assay [13] it was 23.3 µM (inactive). The GI50 in [20] was 15.4 µM (inactive); in assay [14], 23 µM (inactive); in assay [15], 6.27 µM (inactive); in assay [16] it was 13.9 µM (inactive); in assay [17], 19.2 µM (inactive); in assay [18], 18.7 µM (inactive). In addition, the GI50 in assay [19] was 31.6 µM (inactive).

Regarding `Cc1c2cccc-2ccc2c1[nH]c1ccccc12`, the GI50 in assay [1] is 1.77 µM (inactive); in assay [2] it was 1.27 µM (inactive); in assay [4], 2.12 µM (inactive); in [5], 2.34 µM (inactive); in assay [6], 2 µM (inactive); in [7], 2.55 µM (inactive). Besides, the GI50 in assay [8] was 1.73 µM (inactive); in assay [9] it was 1.76 µM (inactive); in assay [10], 1.89 µM (inactive); in assay [11] it was 2.77 µM (inactive); in assay [12] it was 1.85 µM (inactive); in assay [13], 3.34 µM (inactive). For the same compound, the GI50 in assay [20] was 2.47 µM (inactive); in assay [14], 1.76 µM (inactive); in assay [15] it was 2.43 µM (inactive); in [16], 2.38 µM (inactive); in assay [17] it was 1.8 µM (inactive); in [18], 2.54 µM (inactive). The GI50 in assay [19] was 1.68 µM (inactive).

As for `C[C@H](C(=O)N1C(=O)O[C@@H](c2ccccc2)[C@H]1C)[C@H](c1ccccc1)N(Cc1ccccc1)OC(=O)c1ccccc1`, the GI50 is 31.8 µM (inactive) in [1]; 37.2 µM (inactive) in [2]; 21.6 µM (inactive) in [3]; 34.1 µM (inactive) in assay [4]; 84.5 µM (inactive) in [5]; 29.2 µM (inactive) in [6]. Besides, the GI50 in [7] was 45.3 µM (inactive); in [8] it was 24.3 µM (inactive); in assay [9], 94 µM (inactive); in assay [10], > 100 µM (inactive); in [11], 65.3 µM (inactive); in assay [12] it was 30.4 µM (inactive). Besides, the GI50 in assay [13] was 30.3 µM (inactive); in [14], 53.5 µM (inactive); in [15], 21.7 µM (inactive); in assay [16], 21.6 µM (inactive); in [17], 22.1 µM (inactive); in assay [18] it was 15.8 µM (inactive). Besides, in assay [19], the GI50 is 20.9 µM (inactive).

For the compound `CCOc1cc2c(cc1O)/C(=N/NS(=O)(=O)c1ccc(C)cc1)C[C@@H]1[C@@H]2CC[C@]2(C)[C@@H](O)CC[C@@H]12`, the GI50 in assay [1] is 10.5 µM (inactive); in [2], 3.79 µM (inactive); in assay [3], 3.75 µM (inactive); in assay [5], 7.57 µM (inactive); in [6], 12.1 µM (inactive); in assay [7], 8.43 µM (inactive). In addition, the GI50 was 3.21 µM (inactive) in assay [8]; 8.51 µM (inactive) in assay [9]; 7.43 µM (inactive) in assay [10]; 32.7 µM (inactive) in assay [11]; 4.65 µM (inactive) in assay [12]; 3.5 µM (inactive) in assay [13]. The GI50 in assay [14] was 7.53 µM (inactive); in assay [15] it was 2.92 µM (inactive); in assay [16], 3.15 µM (inactive); in assay [17], 3.94 µM (inactive); in assay [18], 6.87 µM (inactive); in assay [19], 58.2 µM (inactive).

As to `O=C(CN1c2ccccc2Sc2ccccc21)N1CCNCC1`, the GI50 in assay [1] is > 100 µM (inactive); in assay [2] it was 99.8 µM (inactive); in assay [4], > 100 µM (inactive); in [5], > 100 µM (inactive); in assay [6], 71.4 µM (inactive); in assay [7], > 100 µM (inactive). For the same compound, the GI50 in assay [8], in assay [9], in [10], in assay [11], in [12] and in [13] was > 100 µM (inactive) in each case. Also, the GI50 was > 100 µM (inactive) in [20]; 73.1 µM (inactive) in assay [14]; > 100 µM (inactive) in assay [15]; > 100 µM (inactive) in [16]; > 100 µM (inactive) in assay [17]; 71.9 µM (inactive) in assay [18]. In addition, the GI50 in assay [19] was > 100 µM (inactive).

On to `O=C(O)CCC(c1ccccc1)(c1ccccc1)c1ccccc1`, for which the GI50 in assay [1] was 31 µM (inactive); in [2], 64.3 µM (inactive); in assay [3], 32.4 µM (inactive); in [5], 29.9 µM (inactive); in [7], 45.1 µM (inactive); in assay [8], 33 µM (inactive). The GI50 in assay [9] is 43.6 µM (inactive); in assay [10] it was > 100 µM (inactive); in [11], 34.4 µM (inactive); in [12] it was 25.2 µM (inactive); in assay [13], 36.5 µM (inactive); in [20] it was 14.7 µM (inactive). Moreover, the GI50 in assay [14] is 33 µM (inactive); in assay [15], 27 µM (inactive); in assay [16], 50.7 µM (inactive); in assay [17] it was 22.9 µM (inactive); in assay [18], 0.647 µM (active); in assay [19], 37 µM (inactive).

Consider `COc1ccc(C(=O)CC(c2ccccc2)[C@H]2C(c3ccc(OC)cc3)=Nc3c(nc(SC)n(C)c3=O)NC2c2ccccc2)cc1` (stereo not given in full), for which the GI50 in assay [2] is > 100 µM (inactive); in [3] it was > 100 µM (inactive); in assay [4], 89.7 µM (inactive); in assay [5], > 100 µM (inactive); in assay [6], > 100 µM (inactive); in assay [7], > 100 µM (inactive). Besides, the GI50 in [8], in assay [9], in assay [11], in assay [12], in assay [13] and in assay [20] was > 100 µM (inactive) in each case. In addition, the GI50 in assay [14], in [15], in assay [16], in assay [17], in assay [18] and in assay [19] was > 100 µM (inactive) throughout.

Regarding `COc1nc(C)nc2c1ncn2Cc1ccccc1`, the GI50 in assay [1] is > 100 µM (inactive); in assay [2], > 100 µM (inactive); in assay [3], > 100 µM (inactive); in assay [4], > 100 µM (inactive); in [5], 99.8 µM (inactive); in [6], > 100 µM (inactive). The GI50 in [7], in [8], in assay [9], in assay [10], in assay [11] and in assay [12] was > 100 µM (inactive) each time. Besides, the GI50 in assay [13], in assay [20], in assay [14], in assay [15], in [16] and in assay [18] was > 100 µM (inactive) in each case. In addition, the GI50 in assay [19] is > 100 µM (inactive).

In the case of `CCOC(=O)c1ccc(-c2onc(C)c2Br)[nH]1`, the GI50 is 37.6 µM (inactive) in [1]; > 100 µM (inactive) in assay [3]; 30.1 µM (inactive) in assay [4]; 70.5 µM (inactive) in assay [5]; 22.7 µM (inactive) in [6]; 62.7 µM (inactive) in assay [8]. The GI50 in [9] is 41.7 µM (inactive); in [10], 79.6 µM (inactive); in [11] it was 46.8 µM (inactive); in assay [12], > 100 µM (inactive); in [13] it was 29.7 µM (inactive); in [20], 30.4 µM (inactive). Besides, the GI50 in [14] is 60 µM (inactive); in [15] it was 86.7 µM (inactive); in [16], 39.5 µM (inactive); in [17], 76 µM (inactive); in [18], 30 µM (inactive); in assay [19], 47.2 µM (inactive).
